We go through 21 compounds from the supplement of paper PMC5770543.

For experiment [1], the system named is Plasmodium falciparum 3D7. Put plainly: EC50 growth inhibition (60 h, SYBR Green). Conditions: stage: ring-stage start.
Experiment [2] has as its system Toxoplasma gondii RH tachyzoites. Put plainly: % growth inhibition vs DMSO (48 h luciferase); higher = more inhibition. Conditions: 10 µM.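 Note: tested in triplicate wells of 96-well plates on confluent HFF monolayers, with 1% DMSO wells as negative control in four replicates.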
The subject of experiment [3] is Plasmodium falciparum 3D7. Put plainly: % inhibition of schizont-to-ring transition vs DMSO; higher = more inhibition. The procedure, abridged: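 Schizont-to-ring transition inhibition compares new ring formation with that in vehicle controls. Synchronised P. falciparum schizonts (about 40–42 hours post-invasion, 1% parasitemia, 2.5% hematocrit, AlbuMAX-supplemented RPMI) were exposed to 1, 3 or 10 µM compound, after which rings were counted by Hoechst 33342 flow cytometry across three experiments.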

± gives the standard deviation.

As for `CCCn1c(=N)c(C(=O)NC2CCCCC2)cc2c(=O)n3cccc(C)c3nc21`, the EC50 growth inhibition in experiment [1] stood at 3810 nM. Besides, in experiment [2], the “% growth inhibition” value was determined as 71.06 ± 0.62%. Besides, the “% inhibition of schizont-to-ring transition” value (“% inhibition” below) was 1.41% in experiment [3] (1 µM), 20.4% in experiment [3] (3 µM) and 53.1% in experiment [3] (10 µM).

Regarding `CC(C)CCNCC(O)Cn1c2ccccc2c2ccccc21` (stereo unspecified), in experiment [1], the EC50 growth inhibition was determined as 520 nM. For the same compound, the “% growth inhibition” value in experiment [2] was 77.4 ± 2.5%. In addition, the “% inhibition” value in experiment [3] (1 µM) turned out to be 9.61%; in experiment [3] (3 µM), 49.4%; in experiment [3] (10 µM) it was 71.7%.

`CC1CCCCN1CCCNC(=O)c1ccc2c(c1)sc1nc(-c3ccc(F)cc3)cn12` (stereo unspecified) gave an EC50 growth inhibition in experiment [1] of 400 nM. Further, in experiment [2], the “% growth inhibition” value was 48.7 ± 9.3%. In addition, the “% inhibition” value in experiment [3] (1 µM) was determined as 15.8%; in experiment [3] (3 µM), 61.1%; in experiment [3] (10 µM), 73.1%.

For the compound `c1ccc(Cn2c(N=Nc3c(Nc4ccccc4)ccc4ccccc34)nc3ccccc32)cc1`, the EC50 growth inhibition in experiment [1] is 3520 nM. The “% growth inhibition” value in experiment [2] turned out to be 29.1 ± 12%. Further, the figures for the “% inhibition” value in experiment [3] (1 µM), in experiment [3] (3 µM) and in experiment [3] (10 µM) were 14.6%, 25.9% and 52.2%, respectively.

With `O=C(NC1CCN(Cc2ccccc2)CC1)c1cc(-c2ccncc2)nc2ccc(Cl)cc12`, the EC50 growth inhibition in experiment [1] was 1920 nM. Also, in experiment [2], the “% growth inhibition” value was found to be 54.7 ± 2.7%. The “% inhibition” value in experiment [3] (1 µM) worked out at 22.1%; in experiment [3] (3 µM), 60.9%; in experiment [3] (10 µM), 63.4%.

Take `CCC(=O)Nc1nnc(Cc2ccc(OC)c(OC)c2)s1`: the “% growth inhibition” value in experiment [2] came to 56.6 ± 7.6%. The “% inhibition” value in experiment [3] (1 µM) was 4.3%; in experiment [3] (3 µM), 5.07%; in experiment [3] (10 µM), 13.6%.

For `CC(C)(C)c1ccc(C(=O)Nc2c3c(nn2-c2cccc(Cl)c2)CSC3)cc1`, in experiment [2], the “% growth inhibition” value came to 46.7 ± 4.1%. The “% inhibition” value in experiment [3] (1 µM) was 15.4%; in experiment [3] (3 µM), 19.9%; in experiment [3] (10 µM) it was 32.6%.

As to `O=c1cc(NC2CCN(CCCc3ccccc3)CC2)c2cc(Cl)ccc2o1`, the EC50 growth inhibition in experiment [1] is 396 nM. In experiment [2], the “% growth inhibition” value came to 22 ± 19%. The “% inhibition” value in experiment [3] (1 µM) was 61.1%; in experiment [3] (3 µM) it was 66.7%; in experiment [3] (10 µM), 68.9%.

In turn, `COc1ccc(CCN2CCC(CN(C)Cc3cnn(-c4ccccc4)c3)CC2)cc1` registered an EC50 growth inhibition in experiment [1] of 806 nM. Moreover, the “% growth inhibition” value in experiment [2] came out at 63.1 ± 4.5%. Moreover, the “% inhibition” value in experiment [3] (1 µM) was 15.4%; in experiment [3] (3 µM), 48.1%; in experiment [3] (10 µM) it was 63.7%.

Turning to `CCOC(=O)c1c[nH]c2c(CC)cccc2c1=O`, the EC50 growth inhibition in experiment [1] came to 3280 nM. Also, in experiment [2], the “% growth inhibition” value was determined as 29.3 ± 36%. Moreover, the “% inhibition” value in experiment [3] (1 µM) was found to be 28.5%; in experiment [3] (3 µM), 28.8%; in experiment [3] (10 µM), 40.9%.

Turning to `CCCCc1ccc(NS(=O)(=O)c2cc3c4c(c2)CCN4C(=O)CC3)cc1`, the “% growth inhibition” value in experiment [2] came to 36.5 ± 32%. For the same compound, the “% inhibition” value in experiment [3] (1 µM) was 12%; in experiment [3] (3 µM), 12.8%; in experiment [3] (10 µM), 34.4%.

The compound `Cc1cc(Nc2ccc3ccccc3c2)n2ncnc2n1` yielded an EC50 growth inhibition in experiment [1] of 53.7 nM. In addition, the “% growth inhibition” value in experiment [2] stood at 24.1 ± 23%. The “% inhibition” value in experiment [3] (1 µM) was determined as 57.1%; in experiment [3] (3 µM) it was 61.7%; in experiment [3] (10 µM), 61.5%.

In experiment [1], `Nc1ccc(-c2nc3cc(Cc4ccc5[nH]c(-c6ccc(N)cc6)nc5c4)ccc3[nH]2)cc1` gave an EC50 growth inhibition of 218 nM. The “% growth inhibition” value in experiment [2] worked out at 59.1 ± 11%. The “% inhibition” value in experiment [3] (1 µM) worked out at 51.3%; in experiment [3] (3 µM), 70.1%; in experiment [3] (10 µM), 76%.

In the case of `FC(F)(F)c1cccc(CNC2CCN(CCc3ccccc3)CC2)c1`, the EC50 growth inhibition in experiment [1] was 201 nM. In addition, the “% growth inhibition” value in experiment [2] turned out to be 45.5 ± 8.4%. Further, the figures for the “% inhibition” value in experiment [3] (1 µM), in experiment [3] (3 µM) and in experiment [3] (10 µM) were 23.2%, 60% and 69.5%, respectively.

As to `Cc1ccc2cc3c(N)c4c(C)ccc(C)c4nc3nc2c1`, the EC50 growth inhibition in experiment [1] is 432 nM. Moreover, the “% growth inhibition” value in experiment [2] came out at 56.3 ± 6.5%. Moreover, the “% inhibition” value in experiment [3] (1 µM) is 29%; in experiment [3] (3 µM), 72.1%; in experiment [3] (10 µM) it was 79.8%.

Turning to `COc1ccc(C(=O)NC(c2ccc(Cl)cc2Cl)c2cc(Cl)c3cccnc3c2O)cc1` (stereo unspecified), the “% growth inhibition” value in experiment [2] amounted to 32.1 ± 5.2%. Also, the “% inhibition” value in experiment [3] (1 µM) stood at 19.2%; in experiment [3] (3 µM), 19.5%; in experiment [3] (10 µM), 25.5%.

Turning to `CN1CCN(c2c3c(c(C#N)c4nc5ccccc5n24)CCC3)CC1`, in experiment [2], the “% growth inhibition” value came to 39.4 ± 4.5%. In addition, the “% inhibition” value was less than 0% in experiment [3] (1 µM), 5.66% in experiment [3] (3 µM) and 21.3% in experiment [3] (10 µM).

With `Cc1ccccc1OCCSc1nc2ccc(NC(=O)c3ccccc3)cc2s1`, the “% growth inhibition” value in experiment [2] is 29.6 ± 11%. Also, the “% inhibition” value in experiment [3] (1 µM) worked out at 32%; in experiment [3] (3 µM) it was 33%; in experiment [3] (10 µM), 43.1%.

Turning to `COc1ccc(C2=C(c3ccc(OC)cc3)C3(c4ccccc4)C(=O)C2(c2ccccc2)C2C(=O)N(c4ccc(C)cc4)C(=O)C23)cc1` (stereo unspecified), the “% growth inhibition” value in experiment [2] was determined as 41.5 ± 7.4%. The “% inhibition” value is less than 0% in experiment [3] (1 µM), less than 0% in experiment [3] (3 µM) and 24.9% in experiment [3] (10 µM).

Take `Cc1cccc(-n2ncc3c(O)nc(-n4nc(C)cc4NC(=O)c4cc5ccccc5o4)nc32)c1`: in experiment [2], the “% growth inhibition” value was 30.2 ± 52%. The “% inhibition” value in experiment [3] (1 µM) is 16.7%; in experiment [3] (3 µM), 23.7%; in experiment [3] (10 µM) it was 27.8%.

For the compound `COc1ccc2nc(N)nc(C)c2c1`, the “% growth inhibition” value in experiment [2] is 41.7 ± 16%. Further, the “% inhibition” value was found to be 2.26% in experiment [3] (1 µM), 6.22% in experiment [3] (3 µM) and 17.5% in experiment [3] (10 µM).
